Experimental data published in patent US4033721A, “Analysis of gentian violet residue in tissue” (priority 1976, dated 1977).
Values joined by “and” are separate entries in the source; they are usually repeats but may differ in a detail not shown here. Identical values can stand only once. Like-named read-outs stand apart in the source and are kept apart here.

Columns and labels:
[1] = cited from earlier work
[2] = Residual 14C-gentian violet in tissues of cockerels after repeated oral administration (Example 26)
[3] = cited from earlier work; remark: listed apart in the source
Candida albicans = conditions: cited from earlier work
[4] = Spectrophotometric determination of gentian violet residue in livers of chickens fed gentian violet (Examples 2 to 24); assay type: in vivo
Protocol: This example involves the spectrophotometrical determination of the gentian violet content (as a residue) of poultry tissue.
An acid alcohol solution was prepared by adding 20 ml of concentrated hydrochloric acid to 2,000 ml of 95 percent ethyl alcohol (denatured).
A gentian violet stock solution was prepared as follows: Using the Ainsworth chainomatic analytical balance, 0.104 gm of crystalline gentian violet (USP) was accurately weighed out and quantitatively transferred to a 1000 ml volumetric flask and q.s. to 1000 ml with distilled water. A magnetic stirring bar was inserted into the flask and the gentian violet solution was mixed on a magnetic mixer for 1 hour. This solution contained 100 ug of gentian violet per ml (100 ppm).
Gentian violet-acid alcohol standard solutions were prepared as follows: Five standard dilutions of gentian violet in acid alcohol were prepared and the absorbence (O.D.) for each dilution was determined. The absorbence of the 5 dilutions were plotted on a graph to determine the linearity of the gentian violet curve.
The spectrophotometer was set at 590 mμ and zeroed using an acid alcohol blank. The absorbence of the 5 standard dilutions in the 13 mm cuvette was determined. The O.D. of the 1 ppm dilution in the 13 mm cuvette was recorded for use in calculation of the gentian violet recovery. (If method sensitivity below 0.1 ppm is desired, the O.D. of the 1 ppm standard in the 100 mm cell is recorded and the Beckman D.U. is used to make the determinations.)
A sodium hypochlorite quenching solution was prepared as follows: 0.26 gm. of sodium hypochlorite was weighed into a 250 ml Erlenmeyer flask and q.s. to 100 ml with distilled water. This solution was 0.26 percent NaOCL. If sodium hypochlorite is not available in the laboratory, this solution can be made from any standard household bleaching solution containing sodium hypochlorite (i.e., Clorox) at the 5.25 percent concentration. 1 ml 5.25 percent NaOCL q.s. to 20 ml with distilled water to give 20 ml of 0.26 percent NaOCL.
The tissue samples were prepared by grinding the tissues in a Waring-type blender to reduce the tissues to the smallest particle size possible. Using a Mettler P162-type balance, 5 gm samples of the finely ground tissues were weighed (in triplicate) into Erlenmeyer flasks.
Gentian violet was extracted from tissue samples as follows: 50 ml of acid-alcohol were added (using a graduated glass cylinder) to each of the samples in the flasks. A 3/4" magnetic stirring bar was inserted into each sample. The flasks were stoppered. The samples were placed on the magnetic mixers and mixed for 1 hour. After mixing, the samples were set in the dark to digest for 12 hours (overnight). After 12 hours of digestion the samples were again placed on the magnetic mixer and mixed for 1 hour. The contents of the sample flasks were poured into 60 ml glass centrifuge tubes and centrifuged at 2400 rpm for 10 minutes.
Chromatographic column clearing of the centrifuged samples was achieved as follows: Each column was equipped with a glass stop-cock, if the column was not so equipped. A small glass-wool pledget was inserted firmly in the bottom of the column to fill the bottom curve of the column. 5 to 6 grams of the Alumin AR sorbent was added to each column. The supernatant liquid was carefully decanted from the centrifuge tube into the chromatographic column. A 50 ml beaker was placed under each column. The stop-cock was opened and the first eluant from the column was collected until a minimum of 20 ml was collected. (This first eluant ordinarily was yellow in color but contained the extracted gentian violet.)
Spectrophotometric determination of the gentian violet concentration from the tissue sample was determined as follows: 5 ml of each of the eluants was pipetted into the 13 mm cuvettes. The spectrophotometer was set at 590 mu. The spectrophotometer was zeroed using an acid alcohol blank in the 13 mm cuvette. It was established that all cuvettes were matched. […]

[5] = water, chloroform and ethanol; cited from earlier work
[6] = cited from earlier work; remark: listed apart in the source
[7] = Stability of gentian violet (light, acid, digestive tract pH); assay type: physicochemical
normal coliform bacteria = conditions: intestinal tract; cited from earlier work
[8] = cited from earlier work; remark: listed apart in the source
[9] = 4 hours after last administration

## CN(C)c1ccc(C(=C2C=CC(=[N+](C)C)C=C2)c2ccc(N(C)C)cc2)cc1 [gentian violet, hexamethylpararosaniline chloride]
[1]; digestive tract of animals and poultry
  absorption: essentially non-absorbable
[1]; in vivo
  residue in tissue of animals fed the compositions: little or no residue
[2]; [9]
  radioactivity in 5X kidneys relative to 1X kidneys: 4.7 times
  radioactivity in 5X livers relative to 1X livers: 2.7 times
[2]; in vivo
  concentration by the liver relative to the kidneys: about twice as much
[2]; livers and kidneys
  disappearance from one organ versus the other: does not disappear more rapidly from one organ than the other
[2]; livers and kidneys, 5X and 1X
  mean half-life in the two organs at dose levels: 32.2 h
[3]; in vivo
  toxic effects in poultry: can kill the poultry or cause a decrease in the weight gain of the poultry
[3]; levels given in U.S. Pat. No. 3,916,027
  toxicity of residue levels to the consuming animal or poultry: not toxic or harmful
Candida albicans
  effect on Candida albicans: inhibits the growth of and destroys Candida albicans
[4]; chicken liver
  gentian violet residue with time after last intake of feed: lower with time
[4]; chicken liver, feed 7 ppm for 56 days, 4 hours after final dose, 240 min
  p.p.m. of Gentian Violet in liver: 0.28 p.p.m.
[4]; chicken liver, feed 7 ppm for 56 days, 24 hours after final dose, 1440 min
  p.p.m. of Gentian Violet in liver: 0.20 p.p.m.
[4]; chicken liver, feed 7 ppm for 56 days, 48 hours after final dose, 2880 min
  p.p.m. of Gentian Violet in liver: 0.08 p.p.m. and 0.16 p.p.m.
[4]; chicken liver, feed 35 ppm for 56 days, 12 hours after final dose
  p.p.m. of Gentian Violet in liver: 0.44 p.p.m.
[4]; chicken liver, feed 35 ppm for 56 days, 24 hours after final dose, 1440 min
  p.p.m. of Gentian Violet in liver: 0.80 p.p.m. and 0.60 p.p.m.
[4]; chicken, liver, po, feed 7 ppm for 56 days, 4 hours after final dose, read-out: p.p.m. of Gentian Violet in liver
  concentration at 4 h: 240 ng/g
[4]; chicken, liver, po, feed 7 ppm for 56 days, 12 hours after final dose, read-out: p.p.m. of Gentian Violet in liver
  concentration at 12 h: 120 ng/g
[4]; chicken, liver, po, feed 7 ppm for 56 days, 48 hours after final dose, read-out: p.p.m. of Gentian Violet in liver
  concentration at 48 h: 80 ng/g
[4]; chicken, liver, po, feed 35 ppm for 56 days, 12 hours after final dose, read-out: p.p.m. of Gentian Violet in liver
  concentration at 12 h: 440 ng/g
[4]; chicken, liver, po, feed 35 ppm for 56 days, 24 hours after final dose, read-out: p.p.m. of Gentian Violet in liver
  concentration at 24 h: 640 ng/g
[4]; chicken, liver, po, feed 35 ppm for 56 days, 48 hours after final dose, read-out: p.p.m. of Gentian Violet in liver
  concentration at 48 h: 360 ng/g
[5]
  solubility: soluble in water, chloroform and ethanol
[6]; contaminant in water and residue in poultry manure, ultra-violet rays of sunlight
  biodegradability: biodegradable
[6]; pH range of the digestive tract of animals and poultry
  stability in the digestive tract pH range: stable
[7]; acid ethanol extract, pH lowered by evaporation
  acid stability: the acid would destroy the extracted gentian violet
[7]; ultra violet rays of sunlight
  light stability: extremely sensitive to decomposition
Normal coliform bacteria
  effect on growth and activity of normal coliform bacteria: without materially reducing the growth of and activity of the normal coliform bacteria
[8]; feed containing gentian violet at the claimed levels
  growth on mycotoxin-contaminated feed: increased at a rate significantly faster
[8]; feed contaminated with aflatoxin
  growth promotion: works as a growth promoter
[8]; in vivo
  sparing effect versus aflatoxin concentration: appears to be a linear function of the concentration of the aflatoxin in the feed
